From patent US4435570A, “5-(Phenyl or benzyl amino)methyl-pyrrolo[2,3-d]pyrimidin-4-one” (Takeda Chemical Industries, Ltd., priority 1981, dated 1984)
Values after ≈ are worked out from the molar mass of the structure shown.

Assays:
[1] = tested on: rat liver tRNA-guanine transglycosidase; assay: Intake of compound into tRNA (tRNA-guanine transglycosidase, [3H]guanine-labeled tRNA); format: biochemical; settings: 0.02 OD260 of compound, 0.5 unit enzyme, 100 μl, 37° C., 17 hrs
Method: Intake of the compound of Example 1 into tRNA [^3 H]guanine-labeled tRNA* (8000 cpm), 70 mM Trishydrochloride, 60 mM magnesium chloride, 0.5 unit of rat liver tRNA-guanine transglycosidase and 0.02 OD260 of the compound of Example 1 were adjusted to 100 μl and reacted at 37° C. for 17 hrs. The reaction mixture was absorbed into a strip of Whatman 3 MM filter paper and washed three times with a 5% aqueous solution of trichloroacetic acid, once each with ethanol-ether (1:1) and ether. After drying, the paper strip was scanned with a toluenic scintillant.
* tRNA labeled with [^3 H] guanine in the first letter of its anticodon.
The 0.02 OD260 equivalent of the compound of Example 3 was adjusted to 100 μl and subjected to the same procedure as Experimental Example 1.

[2] = tested on: L5178Y cells (tumor cells); assay: Inhibitory effect upon the multiplication of tumor cells; format: cell-based; settings: RPMI 1640 medium+10% fetal calf serum, 48 hours, 37° C.; for IC50: Mus musculus, read-out: ED50 (concentration giving a cell count of 50% of control)
Method: The inhibitory effect of compound (I) upon the multiplication of cells was detected using L5178Y cells (tumor cells) in RPMI 1640 medium+10% fetal calf serum for 48 hours at 37° C.
The result was expressed in the concentration of the drug giving a cell count of 50% (ED50) with the average number of cells for the control (not modicated) group on the 2nd day being taken as 100%.

[3] = tested on: tRNA in the tumor cells (S-180 cancer-bearing mice); assay: Intake of the radioactive compound into a tumor tissue (tRNA of tumor cells of S-180 cancer-bearing mice); format: in vivo; settings: 100 mg (0.17 mCi)/kg, tail vein once, 24 hours after administration, S-180 i.p. ddN mice
Method: Intake of the radioactive compound of Example 2 into a tumor tissue
Using S-180 cancer-bearing mice (ddN mice, 10^7 tumor cells/mouse as transplanted i.p.), 100 mg (0.17 mCi)/kg of the radioactive compound of Example 2 was administered into the tail vein once. Twenty-four hours after administration, the animal was sacrificed and the tumor cells were taken out and the rate of takeup of the radioactive compound into tRNA in the tumor cells was determined. […] [Experimental method: N. Okada et al., Biochem., 19, 395 (1980)]

Row | SMILES | taken into tRNA [1] [%] | IC50 [2] [mg/L] | rate of takeup of the radioactive compound into tRNA in the tumor cells (tRNA substituted) [3] [%] | ED50 (concentration giving a cell count of 50% of control) [2] [mg/L]
1 | Nc1nc2[nH]cc(CNCc3ccc(I)cc3)c2c(=O)[nH]1 [Example 3, 2-amino-5-(p-iodobenzyl)aminomethylpyrrolo[2,3-d]pyrimidin-4-one] | 93 | 35 (≈ 88.6 µM) | – | –
2 | N=C(NCc1c[nH]c2nc(N)[nH]c(=O)c12)c1cc(I)c(O)c(I)c1 [Example 2, radioactive 2-amino-5-[α-(3,5-diiodo-4-hydroxy)phenyliminomethylamino]methylpyrrolo[2,3-d]pyrimidin-4-one] | – | – | ~100 | –
3 | Nc1nc2[nH]cc(CN[C@H]3C=C[C@H](O)[C@@H]3O)c2c(=O)[nH]1 [Q base, reference compound] | – | – | – | > 200
4 | N=C(NCc1c[nH]c2nc(N)[nH]c(=O)c12)c1cc(I)c(O)c(I)c1 [Example 1, 2-amino-5-[α-(3,5-diiodo-4-hydroxy)phenyliminomethylamino]methylpyrrolo[2,3-d]pyrimidin-4-one] | 59 | 20 (≈ 36.4 µM) | – | –
